Legend:
[1] = system: HCV GT1a wild-type replicon; experiment: Assay Example 1: activity against HCV GT1a wild-type replicon; format: cell-based; details: Hepatitis C virus, 72 h, Huh 7 cells, 3 days, luciferase
Method: (§1) Cells: Huh 7 cell line and HCV GT1b/3a and GT1b/6a NS5A chimeric replicons and GT1b and GT1a wild-type replicon RNA.
(§2) Treatment of Compound: According to the assay final concentrations of the compounds in Table 2, DMSO stock solutions of the compounds were diluted and then added to a 96-well assay plate. The final concentration of DMSO was 0.5%.
(§3) The preparation of cells: After replicon plasmid DNA was linearized with a corresponding restriction enzyme, the DNA was transcribed into RNA by using T7RNA polymerase. Replicon RNA prepared by transcription in vitro was transfected into Huh-7 cells by electroporation. Transfected cells were seeded at a density of 10,000 cells per well into the 96-well assay plate containing the diluted compounds, and then the plate was placed in a 37° C. incubator with 5% CO2 and cultured for 3 days.
(§4) Drug activity assay: Luminescence signal value (RLU) was detected with Envision within 15 minutes using the luciferase assay reagent Britelite plus, and the original data (RLU) was used for the calculation of the activity of the compounds.
(§5) The activity of the compounds was calculated by using the equation below: Inhibition %=(ZPE−CPD)/(ZPE−HPE)×100%*
(§6) The cell viability percentages (Viability %) and the inhibition percentages (Inhibition %) were imported into GraphPad Prism software, respectively, and curves were fitted by using nonlinear regression method to obtain the corresponding curves of the compounds, and the cytotoxicity (CC50) thereof and inhibitory activity (EC50) values against the HCV replicon thereof.

in vitro = format: cell-based; details: human; Huh 7 cells with GT1b wild-type replicon, 3 days, CellTiter-Fluor
Method: as §1, §2, §3
Cell viability assay: A cell growth fluorescent titration detection reagent CellTiter-Fluor was added to the 96-well plate of the GT1b wild-type replicon. After the cells were cultured for 1 hour in a 37° C. incubator with 5% CO2, the fluorescence signal value (RFU) was detected by Envision, and the original data (RFU) was used for the calculation of the cytotoxicity of the compounds.
The cytotoxicity of the compounds was calculated by using the equation below: Cell Viability %=(CPD−HPE)/(ZPE−HPE)×100%*
as §6

[2] = Assay Example 5: distribution in mouse plasma and liver tissue; format: in vivo; details: 10 mg/kg intragastric; for Kp at 0.5 h / Kp at 3 h / Kp at 8 h: male, oral, liver/plasma, read-out: Ratio (L/P)
Method: Eighteen male mice were randomly divided into two groups, fasted (free access to water) overnight, and then intragastrically administered with 10 mg/kg of Compound 1a and Compound 6b, respectively. The subject animals were sacrificed by bloodletting at 0.5 h, 3 h and 8 h after administration. About 1 mL of blood was taken, and anticoagulated with EDTA-K2. The blood samples were immediately placed in ice, and then transferred within 30 min to centrifuge and separate plasma at 4° C. and 4,000 rpm for 10 min. Meanwhile, the whole liver was taken out at the various time points, rinsed with ice-cold physiological saline, blotted dry, weighed, and prepared into a homogenate with physiological saline (W/V=1:5). All plasma and liver homogenates were collected and then immediately stored at −20° C. for testing.
The mice can be fed at 4 h after administration.
After being completely melted, all the samples were vortexed to mix evenly. 50 μL of the samples were pipetted into a 1.5 mL centrifuge tube respectively and then 200 μL of IS-D (20 ng/ml diazepam acetonitrile) solution was added to each sample (200 μL of acetonitrile was added to the blank sample). The samples were vortexed for 10 min and then centrifuged at 12,000 rpm and 4° C. for 10 min. After 80 μL of pure water was added to a 96-well plate, 80 μL of the supernatants were pipetted respectively from the centrifuge tubes to the 96-well plate, vortexed for 3 min, and then kept at 4° C. until LC-MS/MS injection analysis.

[3] = system: GT1a-NS5A-L31V mutant replicon; experiment: Assay Example 6: drug resistance, activity against GT1a-NS5A-L31V mutant replicon; format: cell-based, hepatitis C virus; details: for GT1a-NS5A-L31V Fold change: EC50 mutant versus GT1a-wt; for EC50: Hepatitis C virus, GT1A, Huh-7, 72 h, read-out: GT1a-NS5A-L31V EC50 value
Method: Cells: Huh-7 cells are liver cancer cell strains (from AppTec, USA), HCVGT1a wild-type replicon and GT1a-NS5A-Y93H and GT1a-NS5A-L31V mutant replicons
Treatment of Compound: According to the assay final concentrations of the compounds in Table 11, DMSO stock solutions of the compounds were diluted and then added to a 96-well assay plate. The final concentration of DMSO was 0.5%.
as §3, with “T7 RNA” for “T7RNA”, “then” for “then the plate was”
Compound activity assay: Luminescence signal value (RLU) was detected with Envision within 5 minutes by using the luciferase assay reagent Britelite plus, and the original data (RLU) was used for the calculation of the activity of the compounds.
The activity of the compounds was calculated by using the equation below: Inhibition %=(CPD−ZPE)/(HPE−ZPE)×100%*
The compound activity percentages (Inhibition %) were imported into GraphPad Prism software, and curves were fitted by using nonlinear regression method to obtain the corresponding curves of the compounds and the inhibitory activity (EC50) values against the HCV replicon thereof.

[4] = system: HCV GT1b wild-type replicon; experiment: Assay Example 1: activity against HCV GT1b wild-type replicon (luciferase, transient transfection); format: cell-based; details: Hepatitis C virus, 72 h, Huh 7 cells, 3 days
Method: as §1, §2, §3, §4, §5, §6

[5] = system: hepatitis C virus HCVcc (GT2a, JFH-1); experiment: Assay Example 3: activity against infective hepatitis C virus HCVcc (GT2a, JFH-1); format: cell-based; details: Huh-7.5.1, 72 h, read-out: EC50 Value GT2a HCVcc
Method: Cells: Huh7.5.1 cells and hepatitis C virus HCVcc (GT2a, JFH-1) infection system.
Treatment of Compound: According to the assay final concentrations of the compounds in Table 6, DMSO stock solutions of the compounds were diluted and then added to a 96-well assay plate. The final concentration of DMSO was 0.5%.
Viral infection: Huh7.5.1 cells were seeded in a 96-well cell culture plate, and the cells were cultured overnight at 37° C. in an incubator with 5% CO2 for later use. The compound and the HCVcc virus solution (MOI=0.1) were simultaneously added to the cells, and the virus infection was cultured for 3 days. Parallel cytotoxicity assay was identical to the method for the inhibition of the virus but without viral infection.
Drug activity assay: The activity of hRLuc was detected by the addition of Renilla luciferase assay reagent. The original data (RLU) was used for the calculation of the activity of the compounds.
The activity of the compounds was calculated by using the equation below: Inhibition %=(CPD−VC)/(CC−VC)×100%*
as §6, with “(Cell Viability” for “(Viability”, “compound activity” for “inhibition”

Compound	EC50 [1] [pM]	CC50 (in vitro) [pM]	Liver concentration ([2]; 0.5 h)	Plasma concentration ([2]; 0.5 h)	Liver concentration ([2]; 3 h)	Plasma concentration ([2]; 3 h)	Liver concentration ([2]; 8 h)	Plasma concentration ([2]; 8 h)	Kp at 0.5 h ([2]; 0.5 h)	Kp at 3 h ([2]; 3 h)	Kp at 8 h ([2]; 8 h)	GT1a-NS5A-L31V Fold change [3]	EC50 [3] [pM]	EC50 [4] [pM]	EC50 [5] [pM]
COC(=O)N[C@H](C(=O)N1CCC[C@H]1C(=O)Nc1ccc([C@@H]2CC[C@@H](c3ccc(NC(=O)[C@@H]4CCCN4C(=O)[C@@H](NC(=O)OC)[C@@H](C)OC)cc3)N2c2cc(F)c(N3CC[Si](C)(C)CC3)c(F)c2)cc1)[C@@H](C)OC [Compound 1a, Methyl ((2S,2′S,3R,3′R)-((2S,2′S)-(((((2S,5S)-1-(4-(4,4-dimethylazasilinan-1-yl)-3,5-difluorophenyl)pyrrolidin-2,5-diyl)bis(4,1-phenylene))bis(azanediyl))bis(carbonyl))bis(pyrrolidin-2,1-diyl))bis(3-methoxy-1-oxobutan-1,2-diyl))dicarbamate]	7.7	> 100	337 ± 33.1	139 ± 16.9	2644 ± 147.3	384 ± 81	334 ± 73.9	59 ± 7.8	2.43	6.89	5.67	40.9	27		
COC(=O)N[C@H](C(=O)N1CCC[C@H]1C(=O)Nc1ccc([C@H]2CC[C@H](c3ccc4nc([C@@H]5CCCN5C(=O)[C@@H](NC(=O)OC)[C@@H](C)OC)[nH]c4c3)N2c2cc(F)c(N3CC[Si](C)(C)CC3)c(F)c2)cc1)[C@@H](C)OC [Compound 6b]	6.2	> 100	401 ± 116	226 ± 66	960 ± 530	464 ± 363.3	18 ± 1	10 ± 5.8	1.78	2.07	1.76	10.0	22	6.7	1.37
